Test results reported in US9102613B2, “Method for producing sorbic anhydride and also use thereof as a preservative in foods” (LANXESS DEUTSCHLAND GMBH, priority 2010, dated 2015).

Assay: preservative action in foods (e.g. fruit drinks)

| SMILES | preservation action relative to sorbic acid or sorbate (compared with sorbic acid or sorbate, preservative for foods) | preservative action relative to potassium sorbate (compared with e.g. potassium sorbate, preservation of foods) |
| --- | --- | --- |
| C/C=C/C=C/C(=O)OC(=O)/C=C/C=C/C [all-E-sorbic anhydride] | approximately five times higher |  |
| C/C=C/C=C/C(=O)OC(=O)/C=C/C=C/C [sorbic anhydride] |  | about 5 times |
